Measurements taken from US20010053781A1, “Pharmaceutical composition for enhancing cognition” (National Science Council, priority 2000, published 2001).

Key:
[1] = test system: deficit of place learning in the Morris water maze task induced by scopolamine in rats; assay: Morris water maze test, scopolamine-induced deficit of place learning; type: in vivo, rat; conditions: 50-100 mg/kg ferulic acid i.p., scopolamine 0.3 mg/kg i.p., FIG. 9
Method: The water maze apparatus (Columbus Instruments Intl. Co., USA) was used in this Example. The swimming time and track of rats in the water maze were monitored by the Videomex V System and recorded by computer software. The water maze apparatus consisted of a water tank of 180 cm in diameter and 35 cm in height. The water stained as milk-white color was poured into the tank (25 cm in depth, 23±1° C.) before the training trial. The tank was conceptually divided into the 4 quadrants of east, west, south and north on the computer. An acrylic plate of 10 cm in diameter was placed at the north quadrant 1 cm below the water level. Rats were trained 4 times per day as one training course for 5 days. In one training course, each rat swam to the acrylic plate from 4 different quadrants, respectively. 10 seconds after swimming to the acrylic plate, the rat was returned to the home cage. After 30 seconds of rest, the next training session was carried out. The swimming time from the beginning to the acrylic plate was recorded, and an upper cut-off time of 60 seconds was set^(18). Ferulic acid (Sigma) was freshly dissolved in carboxy-methyl cellulose, and administered to rats (50, 100 mg/kg, i.p.) 1 hour before the training trial in combination with the following drug: scopolamine HBr (muscarinic receptor blocker; 0.3 mg/kg, i.p.) 30 minutes before the training trial for inducing acquisition impairment.

[2] = test system: AF64A-induced impairment of passive avoidance response in rats; assay: Passive avoidance task, AF64A-induced impairment; type: in vivo, rat; conditions: ferulic acid at 50-100 mg/kg, AF64-A 3 nmol/μl/brain into lateral ventricle 10 days before training, FIG. 8
Method: Male Sprague-Dawley rats, weighing 200-250 grams, were housed in groups of six with free access to food and water and kept in a regulated environment (23±1° C.), wherein a 12-hour light-dark cycle (08:00-20:00 hours light) was maintained. Each experimental group included 12-18 rats.
Rats were trained in a step-through passive avoidance task (Muromachi Kikai Co. Ltd. Japan). The apparatus consisted of two compartments having a steel-rod grid floor (36 parallel steel rods, 0.3 cm in diameter set 1.5 cm apart). One of the compartments (48×20×30 cm) was equipped with a 20 Watt lamp located centrally at a height of 30 cm, and the other was a dark compartment of the same size connected through a guillotine door (5×5 cm). […]
During the trial training, the guillotine door connecting the light and dark compartment was kept closed. After each rat was placed in the light compartment with its back to the guillotine door, the door was opened and simultaneously the time (step-through latency; STL) taken by the rat to enter the dark compartment was measured with a stopwatch^(14). […] The rat was once again placed in the light compartment and as in the case of the training trial, the guillotine door was opened and the step-through latency was recorded and used as a measure of retention. […]
The step-through latency of rats in light compartment was recorded according to the method described in Example 1. […]

[3] = administered intravenously; reported by Xu et al.; cited from earlier work
[4] = test system: cerebral blood flow rate in rats; assay: Cerebral blood flow rate by laser Doppler flowmetry; type: in vivo, rat; conditions: 50-100 mg/kg ferulic acid, from 10 to 40 minutes after administration, FIG. 10
Method: The cerebral blood flow rate was measured by laser Doppler flowmetry in rats according to the procedure described in Morikawa, E. et al.^(19).

[5] = test system: cycloheximide (CXM)-induced memory storage impairment of passive avoidance response in rats; assay: Passive avoidance task, cycloheximide-induced memory consolidation impairment; type: in vivo, rat; conditions: ferulic acid at 50-100 mg/ml (printed), administered 60 minutes before the training trial, cycloheximide 1.5 mg/kg s.c., FIGS. 4-5
Method: (§1) Male Sprague-Dawley rats, weighing 200-250 grams, were housed in groups of six with free access to food and water and kept in a regulated environment (23±1° C.), wherein a 12-hour light-dark cycle (08:00-20:00 hours light) was maintained. Each experimental group included 12-18 rats. Rats were trained in a step-through passive avoidance task (Muromachi Kikai Co. Ltd. Japan). The apparatus consisted of two compartments having a steel-rod grid floor (36 parallel steel rods, 0.3 cm in diameter set 1.5 cm apart). One of the compartments (48×20×30 cm) was equipped with a 20 Watt lamp located centrally at a height of 30 cm, and the other was a dark compartment of the same size connected through a guillotine door (5×5 cm). The dark room was used during the experimental sessions that were conducted between 09:00 and 17:00. During the trial training, the guillotine door connecting the light and dark compartment was kept closed. After each rat was placed in the light compartment with its back to the guillotine door, the door was opened and simultaneously the time (step-through latency; STL) taken by the rat to enter the dark compartment was measured with a stopwatch^(14). Once the rat entered the dark compartment, the door was closed. An inescapable scrambled footshock (1.0 mA for 2 sec) was then delivered through the grid floor. […]

[6] = test system: mecamylamine-induced acquisition impairment of passive avoidance response in rats; assay: Passive avoidance task, mecamylamine-induced acquisition impairment; type: in vivo, rat; conditions: ferulic acid at 50-100 mg/ml (printed), i.p. 1 hour before training trial, mecamylamine 10 mg/kg i.p., FIG. 2
Method: as §1

[7] = test system: pirenzepine-induced acquisition impairment of passive avoidance response in rats; assay: Passive avoidance task, pirenzepine-induced acquisition impairment; type: in vivo, rat; conditions: ferulic acid at 50-100 mg/ml (printed), i.p., pirenzepine 1 mg/kg i.p., FIG. 3
Method: as §1

[8] = test system: scopolamine (SCOP)-induced acquisition impairment of passive avoidance response in rats; assay: Passive avoidance task, scopolamine-induced acquisition impairment; type: in vivo, rat; conditions: ferulic acid at 50-100 mg/ml (printed), i.p. 1 hour before training trial, scopolamine 1 mg/kg i.p., FIG. 1
Method: as §1

[9] = test system: scopolamine (SCOP)-induced acquisition impairment of passive avoidance response in rats; assay: Passive avoidance task, scopolamine-induced impairment with peripheral antagonist scopolamine methylbromide; type: in vivo, rat; conditions: FIG. 7
Method: as §1

[10] = test system: scopolamine plus mecamylamine-induced acquisition impairment of passive avoidance response in rats; assay: Passive avoidance task, scopolamine plus mecamylamine-induced acquisition impairment; type: in vivo, rat; conditions: ferulic acid at 50-100 mg/ml (printed), scopolamine and mecamylamine co-administered under the threshold dosage, FIG. 6
Method: as §1

## COc1cc(C=CC(=O)O)ccc1O [ferulic acid, 4-hydroxy-3-methoxycinnamic acid]
[1]
  effect on scopolamine-induced acquisition impairment in a water maze: ameliorates
[2]
  effect on memory impairment induced by AF64A (passive avoidance): counteracts
[3]
  half lethal dose (LD50): 866 ± 29 mg/kg
[4]
  effect on cerebral blood flow rate: enhances
[5]
  effect on CXM-induced consolidation impairment (step-through latency, passive avoidance): significantly ameliorates
[6]
  effect on mecamylamine-induced acquisition impairment (step-through latency, passive avoidance): attenuates
[7]
  effect on pirenzepine-induced acquisition impairment (step-through latency, passive avoidance): counteracts
[8]
  effect on scopolamine-induced acquisition impairment (step-through latency, passive avoidance): attenuates
[9]; ferulic acid 100 mg/kg with scopolamine methylbromide 0.5 mg/kg i.p.
  blocking of the counteracting effects of ferulic acid on scopolamine-induced learning impairment by peripheral cholinergic antagonist scopolamine methylbromide: does not block
[9]; ferulic acid at 100 mg/kg, scopolamine 0.3 mg/kg i.p.
  effect on scopolamine-induced acquisition impairment (passive avoidance): ameliorates
[10]
  effect on learning impairment induced by scopolamine plus mecamylamine (passive avoidance): attenuates
